Paper PMC11784013, “Potassium molybdate blocks APN-dependent coronavirus entry by degrading receptor via PIK3C3-mediated autophagy” (Journal of Virology, 2024)

Key:
PEDV LJX 01/2014 = assay: PEDV infection of Vero-E6 cells (TCID50, western blot); type: cell-based, porcine epidemic diarrhea virus; details: TCID50 and western blot
Procedure: (§1) Fig 1 PM inhibits TGEV and PRCV infection in ST cells. (A) A cytotoxicity assay of PM in ST cells. ST cells cultured in a 96-well plate were incubated with different concentrations of PM for 24 h, which was tested by Cell Counting Kit 8. (B) Time course for PM inhibiting TGEV or PRCV or PEDV infection assay. (C–F) The ST cells, pretreated with PM at the indicated concentrations for 1 h were infected with TGEV Miller (0.1 MOI) or PRCV (0.1 MOI) for 1 h and were again treated with PM at 37°C for 17 h. The cell samples were collected and examined by real-time quantitative PCR (RT-qPCR), TCID50, western blot (C and D), and immunofluorescence assay (IFA) (E and F), scale bar: 50 µm. (G) Vero-E6 cells were treated with indicated PM and infected with PEDV LJX 01/2014 according to the time course of Fig. 1B, which was detected by TCID50 and western blot. Results are presented as mean ± SD of data from three independent experiments. ns, no significant; **, P ≤ 0.01; ***, P ≤ 0.001.

ATG14 = ATG14 expression in ST cells (western blot); type: cell-based, porcine; details: Fig. S8A, PM 10 mM, PRCV 0.1 MOI, 16 h
Procedure: Fig 7 PM degrades APN expression via activating PIK3C3-mediated autophagy. (A) Graphical representation for autophagy and the targets of different autophagy inhibitors. (B) ST cells were treated with PM (10 mM) in the presence and absence of 3-MA (20 mM), SBI0206965 (20 µM), and 3BDO (30 µM) for 16 h, and the APN expression was detected by western blot. (C) ST cells were treated with PM (10 mM) in the presence and absence of 3-MA (20 mM) for 16 h, and the APN, PIK3C3, ATG14, BECN1, P62, and LC3 were measured by western blot. (D) ST cells were transfected with PIK3C3 siRNA-1, PIK3C3 siRNA-2, PIK3C3 siRNA-3, PIK3C3 siRNA-4, and NC siRNA for 24 h, the PIK3C3 expression was detected by western blot. […] The APN, PIK3C3, ATG14, BECN1, P62, and LC3 were detected by western blot. […] (G) PIK3C3 was detected by western blot in WT ST cells and PIK3C3 KO ST cells. (H) WT ST cells and PIK3C3 KO ST cells were treated with PM (10 mM) for 16 h and then the APN, PIK3C3, ATG14, BECN1, P62, and LC3 were detected by western blot. […] The APN, PIK3C3, P62, and LC3 were detected by western blot. All western blot results were calculated by Image J. All experiments were performed in triplicate.
Fig. S8. […] Then the APN, PIK3C3, ATG14, BECN1, P62, PRCV N and LC3 were detected by western blot (A), and viral titers and PRCV N mRNA level were determined by TCID50 (B) and RT-qPCR (C) . […]

ST cells = assay: Cell Counting Kit 8 cytotoxicity assay in ST cells; type: cell-based, swine; details: PM at concentrations less than 30 mM, 24 h
Procedure: as §1
ST cells or intestinal organoids cultured in a 96-well plate were incubated with different concentrations of PM (0, 0.1, 0.25, 0.5, 1, 2.5, 5, 10, 20, and 30 mM) for 24 h. […] The absorbance of each well was then measured at 450 nm using a microplate reader to determine cell viability.

[K+].[K+].[O]=[Mo](=[O])([O-])[O-] [PM, potassium molybdate]
PEDV infection (PEDV LJX 01/2014): unable to repress PEDV infection | ATG14 level, western blot, relative to WT without PM (=1) (ATG14; PIK3C3 KO ST cells): 1.03 | ATG14 level, western blot, relative to WT without PM (=1) (ATG14; WT ST cells): 1.07 | cytotoxicity (Cell Counting Kit 8) (ST cells): did not exhibit significant cytotoxicity
